This note sets out measurements from patent US10800789B2, “Antiviral compounds” (Gilead Pharmasset LLC, priority 2012, dated 2020).

Like-named read-outs stand apart in the source and are kept apart here.

Assay [1] concerns stable HCV 1a RLuc replicon cells (dicistronic genotype 1a H77 replicon). Put plainly: Renilla luciferase HCV replicon reporter assay, genotype 1a. In kind it is cell-based. The note with it: Hepatitis C virus, 72 h, stable 1a H77 RLuc replicon cells. Here is the method: (§1) Evaluation of Cell-Based Anti-HCV Activity:
(§2) Antiviral potency (EC50) was determined using a Renilla luciferase (RLuc)-based HCV replicon reporter assay. To perform the assay for genotype 1 and 2a JFH-1, stable HCV 1a RLuc replicon cells (harboring a dicistronic genotype 1a H77 replicon that encodes a RLuc reporter), stable HCV 1b RLuc replicon cells (harboring a dicistronic genotype 1b Con1 replicon that encodes a RLuc reporter), or stable HCV 2a JFH-1 Rluc replicon cells (harboring a dicistronic genotype 2a JFH-1 replicon that encodes a RLuc reporter; with L31 present in NS5A) were dispensed into 384-well plates for EC50 assays. To perform the assay for genotype 2a (with M31 present in NS5A) or 2b, NS5A chimeric genotype 2a JFH-1 replicons that encodes a RLuc-Neo reporter and either genotype 2a J6 strain NS5A gene or genotype 2b MD2b-1 strain NS5A gene (both with M31 present) respectively, were either transiently transfected (t) into Huh-Lunet cells or were established as stably replicating replicon cells (s) is provided. Either cells were dispensed into 384-well plates for EC50 assays. To perform the assay for genotype 3 and 4, NS5A chimeric genotype 1b Con1 replicons that encodes a Pi-RLuc reporter and either genotype 3a S52 strain NS5A gene or genotype 4a ED43 strain NS5A gene respectively, were transiently transfected (t) into Huh-Lunet cells, which were subsequently dispensed into 384-well plates. Compounds were dissolved in DMSO at a concentration of 10 mM and diluted in DMSO either manually or using an automated pipeting instrument. Serially 3-fold diluted compounds were either manually mixed with cell culture media and added to the seeded cells or directly added to the cells using an automated instrument. DMSO was used as a negative (solvent; no inhibition) control, and the protease inhibitor ITMN-191 was included at a concentration>100×EC50 as a positive control. 72 hours later, cells were lysed and Renilla luciferase activity quantified as recommended by the manufacturer (Promega-Madison, Wis.). Non-linear regression was performed to calculate EC50 values.

Assay [2] has as its system stable HCV 1b RLuc replicon cells (dicistronic genotype 1b Con1 replicon). Put plainly: Renilla luciferase HCV replicon reporter assay, genotype 1b. The note with it: Hepatitis C virus, 72 h, stable 1b Con1 RLuc replicon cells, 72 hours; read-out: 1b. The class given is cell-based. Here is the method:
as §1, §2

The subject of assay [3] is stable HCV 2a JFH-1 Rluc replicon cells (L31 present in NS5A). Put plainly: Renilla luciferase HCV replicon reporter assay, genotype 2a JFH-1. Particulars: Hepatitis C virus. The class given is cell-based. As for the experimental part:
as §1, §2
(In antiviral work, replicon cells carry a viral genome segment that copies itself.)

Assay [4] relates to NS5A chimeric genotype 1b Con1 replicon with genotype 3a S52 strain NS5A gene. The assay can be described thus: Replicon assay, genotype 3a NS5A chimera. In kind it is cell-based, HCV. Particulars: Hepatitis C virus.
Assay [5] relates to NS5A chimeric genotype 2a JFH-1 replicon with genotype 2b MD2b-1 strain NS5A gene (M31 present). Put plainly: Replicon assay, genotype 2b NS5A chimera. The class given is cell-based, HCV. Particulars: Hepatitis C virus. As for the experimental part:
as §1, §2

Assay [6] deals with NS5A chimeric genotype 1b Con1 replicon with genotype 4a ED43 strain NS5A gene. Put plainly: Replicon assay, genotype 4a NS5A chimera. Particulars: Hepatitis C virus. The class given is cell-based, HCV.
For assay [7], the system named is NS5A chimeric genotype 2a JFH-1 replicon with genotype 2a J6 strain NS5A gene (M31 present). The assay can be described thus: Replicon assay, genotype 2a J6 NS5A chimera. The class given is cell-based, HCV. The note with it: Hepatitis C virus, read-out: 2a J6 (t) (nM), genotype 2a J6 NS5A chimeric replicon (M31), transiently transfected (t) into Huh-Lunet cells. Here is the method: as §1, §2

The mark [8] stands for this setting: read-out: 2a JFH (nM), genotype 2a JFH-1 replicon (L31 in NS5A), stable cells.
Where [9] appears, read: read-out: 2a JFH, stable 2a JFH-1 Rluc replicon cells, L31 in NS5A, activity range.
Where [10] appears, read: read-out: 3a (s) (nM), genotype 3a NS5A chimeric replicon, stable replicon cells (s).
Where [11] appears, read: read-out: 3a (s), (s), activity range.
The mark [12] stands for this setting: 2BS, read-out: 2b (s), stably replicating replicon cells (s), activity range.
[13] abbreviates: read-out: 2b (s) (nM), genotype 2b MD2b-1 NS5A chimeric replicon (M31), stably replicating replicon cells (s).
The mark [14] stands for this setting: read-out: 4a (s) (nM), genotype 4a NS5A chimeric replicon, stable replicon cells (s).
Where [15] appears, read: read-out: 4a (s), (s), activity range.

In the case of `CC[C@H]1CC[C@@H](c2ncc(-c3ccc4c(c3)COc3cc5c(ccc6nc([C@@H]7CC[C@H](C)N7C(=O)[C@@H](NC(=O)OC)[C@@H](C)OC)[nH]c65)cc3-4)[nH]2)N1C(=O)[C@@H](NC(=O)OC)C(C)C` [EQ, methyl{(2S,3R)-1-[(2S,5S)-2-(9-{2-[(2S,5S)-5-ethyl-1-{(2S)-2-[(methoxycarbonyl)amino]-3-methylbutanoyl}pyrrolidin-2-yl]-1H-imidazol-5-yl}-1,11-dihydroisochromeno[4′,3′:6,7]naphtho[1,2-d]imidazol-2-yl)-5-methylpyrrolidin-1-yl]-3-methoxy-1-oxobutan-2-yl}carbamate], the EC50 was 0.034 nM in assay [1]; less than 0.1 nM in assay [1] (activity range); 0.036 nM in assay [2]; 0.022 nM in assay [3] (setting [8]); less than 0.1 nM in assay [3] (setting [9]); 0.475 nM in assay [4] (setting [10]). Moreover, the EC50 in assay [4] (setting [11]) is 0.1 to 0.999 nM; in assay [5] (setting [12]) it was 0.1 to 0.999 nM; in assay [5] (setting [13]), 0.279 nM; in assay [6] (setting [14]), 0.025 nM; in assay [6] (setting [15]) it was less than 0.1 nM.

Consider `CC[C@H]1CC[C@@H](c2ncc(-c3ccc4c(c3)COc3cc5c(ccc6nc([C@@H]7C[C@H](COC)CN7C(=O)[C@@H](NC(=O)OC)C(C)C)[nH]c65)cc3-4)[nH]2)N1C(=O)[C@@H](NC(=O)OC)C(C)C` [ER, Methyl {(2S)-1-[(2S,4S)-2-(9-{2-[(2S,5S)-5-ethyl-1-{(2S)-2-[(methoxycarbonyl)amino]-3-methylbutanoyl}pyrrolidin-2-yl]-1H-imidazol-5-yl}-1,11-dihydroisochromeno[4′,3′:6,7]naphtho[1,2-d]imidazol-2-yl)-4-(methoxymethyl)pyrrolidin-1-yl]-3-methyl-1-oxobutan-2-yl}carbamate], for which the EC50 in assay [1] was 0.016 nM; in assay [1] (activity range) it was less than 0.1 nM; in assay [2], 0.02 nM; in assay [3] (setting [8]) it was 0.021 nM; in assay [3] (setting [9]), less than 0.1 nM; in assay [4] (setting [10]), 2.8 nM. The EC50 in assay [4] (setting [11]) is 1 to 44 nM; in assay [5] (setting [12]), 0.1 to 0.999 nM; in assay [5] (setting [13]) it was 0.852 nM; in assay [6] (setting [14]), 0.011 nM; in assay [6] (setting [15]) it was less than 0.1 nM.

Take `COC(=O)N[C@H](C(=O)N1C[C@@H](C)C[C@H]1c1nc2ccc3cc4c(cc3c2[nH]1)OCc1cc(-c2cnc([C@@H]3CC[C@H](C)N3C(=O)[C@@H](NC(=O)OC)C3CCOCC3)[nH]2)ccc1-4)C(C)C` [FP, Methyl [(2S)-1-{(2S,4S)-2-[9-(2-{(2S,5S)-1-[(2S)-2-[(methoxycarbonyl)amino]-2-(tetrahydro-2H-pyran-4-yl)acetyl]-5-methylpyrrolidin-2-yl}-1H-imidazol-5-yl)-1,11-dihydroisochromeno[4′,3′:6,7]naphtho[1,2-d]imidazol-2-yl]-4-methylpyrrolidin-1-yl}-3-methyl-1-oxobutan-2-yl]carbamate]: the EC50 in assay [1] is 0.016 nM; in assay [1] (activity range), less than 0.1 nM; in assay [2] it was 0.024 nM; in assay [3] (setting [8]) it was 0.016 nM; in assay [3] (setting [9]), less than 0.1 nM; in assay [4] (setting [10]) it was 0.052 nM. The EC50 was less than 0.1 nM in assay [4] (setting [11]); less than 0.1 nM in assay [5] (setting [12]); 0.085 nM in assay [5] (setting [13]); 0.017 nM in assay [6] (setting [14]); less than 0.1 nM in assay [6] (setting [15]).

As for `CC[C@H](C)[C@H](NC(=O)OC)C(=O)N1[C@@H](C)CC[C@H]1c1nc2ccc3cc4c(cc3c2[nH]1)OCc1cc(-c2cnc([C@@H]3C[C@H](COC)CN3C(=O)[C@@H](NC(=O)OC)C(C)C)[nH]2)ccc1-4` [FS, Methyl {(2S,3S)-1-[(2S,5S)-2-(9-{2-[(2S,4S)-1-{(2S)-2-[(methoxycarbonyl)amino]-3-methylbutanoyl}-4-(methoxymethyl)pyrrolidin-2-yl]-1H-imidazol-5-yl}-1,11-dihydroisochromeno[4′,3′:6,7]naphtho[1,2-d]imidazol-2-yl)-5-methylpyrrolidin-1-yl]-3-methyl-1-oxopentan-2-yl}carbamate], the EC50 in assay [1] was 0.024 nM; in assay [1] (activity range) it was less than 0.1 nM; in assay [2], 0.025 nM; in assay [3] (setting [8]) it was 0.025 nM; in assay [3] (setting [9]), less than 0.1 nM; in assay [4] (setting [10]), 0.411 nM. Further, the EC50 in assay [4] (setting [11]) is 0.1 to 0.999 nM; in assay [5] (setting [12]) it was 0.1 to 0.999 nM; in assay [5] (setting [13]) it was 0.784 nM; in assay [6] (setting [14]), 0.017 nM; in assay [6] (setting [15]), less than 0.1 nM.

For `CC[C@H](C)[C@H](NC(=O)OC)C(=O)N1C[C@@H](COC)C[C@H]1c1ncc(-c2ccc3c(c2)COc2cc4c(ccc5nc([C@@H]6CC[C@H](C)N6C(=O)[C@@H](NC(=O)OC)[C@@H](C)OC)[nH]c54)cc2-3)[nH]1` [FT, Methyl {(2S,3S)-1-[(2S,4S)-2-(5-{2-[(2S,5S)-1-{(2S,3R)-3-methoxy-2-[(methoxycarbonyl)amino]butanoyl}-5-methylpyrrolidin-2-yl]-1,11-dihydroisochromeno[4′,3′:6,7]naphtho[1,2-d]imidazol-9-yl}-1H-imidazol-2-yl)-4-(methoxymethyl)pyrrolidin-1-yl]-3-methyl-1-oxopentan-2-yl}carbamate], the EC50 is 0.04 nM in assay [1]; less than 0.1 nM in assay [1] (activity range); 0.045 nM in assay [2]; 0.029 nM in assay [3] (setting [8]); less than 0.1 nM in assay [3] (setting [9]); 0.283 nM in assay [4] (setting [10]). The EC50 in assay [4] (setting [11]) was 0.1 to 0.999 nM; in assay [5] (setting [12]), 0.1 to 0.999 nM; in assay [5] (setting [13]), 0.395 nM; in assay [6] (setting [14]), 0.028 nM; in assay [6] (setting [15]) it was less than 0.1 nM.

Turning to `COC(=O)N[C@H](C(=O)N1C[C@@H](C)C[C@H]1c1ncc(-c2ccc3c(c2)COc2cc4c(ccc5nc([C@@H]6CC[C@H](C)N6C(=O)[C@@H](NC(=O)OC)[C@@H](C)OC)[nH]c54)cc2-3)[nH]1)C(C)C` [GH, Methyl {(2S)-1-[(2S,4S)-2-(5-{2-[(2S,5S)-1-{(2S,3R)-3-methoxy-2-[(methoxycarbonyl)amino]butanoyl}-5-methylpyrrolidin-2-yl]-1,11-dihydroisochromeno[4′,3′:6,7]naphtho[1,2-d]imidazol-9-yl}-1H-imidazol-2-yl)-4-methylpyrrolidin-1-yl]-3-methyl-1-oxobutan-2-yl}carbamate], the EC50 was 0.02 nM in assay [1]; less than 0.1 nM in assay [1] (activity range); 0.027 nM in assay [2]; 0.011 nM in assay [3] (setting [8]); less than 0.1 nM in assay [3] (setting [9]); 0.07 nM in assay [4] (setting [10]). The EC50 in assay [4] (setting [11]) was less than 0.1 nM; in assay [5] (setting [12]), 0.1 to 0.999 nM; in assay [5] (setting [13]), 0.247 nM.

For `CC[C@H](C)[C@H](NC(=O)OC)C(=O)N1CCC[C@H]1c1ncc(-c2ccc3c(c2)COc2cc4c(ccc5nc([C@@H]6CCCN6C(=O)[C@@H](NC(=O)OC)[C@@H](C)CC)[nH]c54)cc2-3)[nH]1` [HH], the EC50 in assay [7] came to 3 nM; in assay [3] (setting [8]) it was 0.012 nM; in assay [4] (setting [10]), 0.06 nM; in assay [5] (setting [13]), 2.25 nM; in assay [6] (setting [14]), 0.011 nM.
